From patent US12172995B2, “Substituted indole and indazole compounds” (BRISTOL-MYERS SQUIBB COMPANY, priority 2018, dated 2024)

Assays:
Assay type in all cases: cell-based
human TLR8 = biological target: T1, human TLR8 (Homo sapiens, UniProt Q9NR97); assay: TLR8 inhibition reporter assay (HEK-Blue SEAP); conditions: HEK-Blue cells overexpressing human TLR8, stimulated with R848 15.9 μM, 22 hour incubation
T1 construct: host or cells: HEK-Blue cells
T1 sequence (Q9NR97 27-1041): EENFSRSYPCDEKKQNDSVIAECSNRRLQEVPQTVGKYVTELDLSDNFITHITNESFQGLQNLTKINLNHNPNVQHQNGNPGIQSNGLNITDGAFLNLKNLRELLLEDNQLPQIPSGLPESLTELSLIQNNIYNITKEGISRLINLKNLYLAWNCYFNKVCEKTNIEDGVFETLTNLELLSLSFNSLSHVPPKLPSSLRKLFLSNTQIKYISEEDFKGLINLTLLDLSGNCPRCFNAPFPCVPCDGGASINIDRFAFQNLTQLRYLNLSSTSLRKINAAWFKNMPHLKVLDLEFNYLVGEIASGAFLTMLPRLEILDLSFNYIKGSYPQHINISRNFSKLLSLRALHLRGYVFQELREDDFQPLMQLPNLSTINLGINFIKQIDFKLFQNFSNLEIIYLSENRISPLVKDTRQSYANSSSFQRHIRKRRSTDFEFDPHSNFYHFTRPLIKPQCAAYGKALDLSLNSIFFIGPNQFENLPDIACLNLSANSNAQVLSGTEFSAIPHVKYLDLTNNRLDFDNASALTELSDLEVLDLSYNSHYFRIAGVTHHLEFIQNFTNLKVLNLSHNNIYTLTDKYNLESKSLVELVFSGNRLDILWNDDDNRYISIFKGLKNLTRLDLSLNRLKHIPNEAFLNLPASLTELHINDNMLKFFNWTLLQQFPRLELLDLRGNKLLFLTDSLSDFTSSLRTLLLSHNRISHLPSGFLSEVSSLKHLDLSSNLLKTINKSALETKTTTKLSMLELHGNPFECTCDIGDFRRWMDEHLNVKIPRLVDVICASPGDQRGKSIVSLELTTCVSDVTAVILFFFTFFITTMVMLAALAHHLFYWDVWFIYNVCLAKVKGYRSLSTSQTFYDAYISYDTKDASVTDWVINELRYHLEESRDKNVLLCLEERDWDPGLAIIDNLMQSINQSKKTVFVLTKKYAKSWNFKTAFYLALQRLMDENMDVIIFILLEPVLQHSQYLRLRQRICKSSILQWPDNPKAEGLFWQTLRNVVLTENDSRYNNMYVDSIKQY
Summary of the method: (§1)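 HEK-Blue cells overexpressing the receptor, with an NF-κB/AP-1-driven SEAP reporter, were pre-treated with compound (0.05 nM to 50 μM) for 30 min at room temperature. Stimulation used gardiquimod 7.5 μM (TLR7), R848 15.9 μM (TLR8) or ODN2006 5 nM (TLR9), followed by 22 h at 37 °C.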

human TLR7 = biological target: T2, human TLR7 (Homo sapiens, UniProt Q9NYK1); assay: TLR7 inhibition reporter assay (HEK-Blue SEAP); conditions: HEK-Blue cells overexpressing human TLR7, stimulated with gardiquimod 7.5 μM, 22 hour incubation
T2 construct: host or cells: HEK-Blue cells
T2 sequence (Q9NYK1 27-1049): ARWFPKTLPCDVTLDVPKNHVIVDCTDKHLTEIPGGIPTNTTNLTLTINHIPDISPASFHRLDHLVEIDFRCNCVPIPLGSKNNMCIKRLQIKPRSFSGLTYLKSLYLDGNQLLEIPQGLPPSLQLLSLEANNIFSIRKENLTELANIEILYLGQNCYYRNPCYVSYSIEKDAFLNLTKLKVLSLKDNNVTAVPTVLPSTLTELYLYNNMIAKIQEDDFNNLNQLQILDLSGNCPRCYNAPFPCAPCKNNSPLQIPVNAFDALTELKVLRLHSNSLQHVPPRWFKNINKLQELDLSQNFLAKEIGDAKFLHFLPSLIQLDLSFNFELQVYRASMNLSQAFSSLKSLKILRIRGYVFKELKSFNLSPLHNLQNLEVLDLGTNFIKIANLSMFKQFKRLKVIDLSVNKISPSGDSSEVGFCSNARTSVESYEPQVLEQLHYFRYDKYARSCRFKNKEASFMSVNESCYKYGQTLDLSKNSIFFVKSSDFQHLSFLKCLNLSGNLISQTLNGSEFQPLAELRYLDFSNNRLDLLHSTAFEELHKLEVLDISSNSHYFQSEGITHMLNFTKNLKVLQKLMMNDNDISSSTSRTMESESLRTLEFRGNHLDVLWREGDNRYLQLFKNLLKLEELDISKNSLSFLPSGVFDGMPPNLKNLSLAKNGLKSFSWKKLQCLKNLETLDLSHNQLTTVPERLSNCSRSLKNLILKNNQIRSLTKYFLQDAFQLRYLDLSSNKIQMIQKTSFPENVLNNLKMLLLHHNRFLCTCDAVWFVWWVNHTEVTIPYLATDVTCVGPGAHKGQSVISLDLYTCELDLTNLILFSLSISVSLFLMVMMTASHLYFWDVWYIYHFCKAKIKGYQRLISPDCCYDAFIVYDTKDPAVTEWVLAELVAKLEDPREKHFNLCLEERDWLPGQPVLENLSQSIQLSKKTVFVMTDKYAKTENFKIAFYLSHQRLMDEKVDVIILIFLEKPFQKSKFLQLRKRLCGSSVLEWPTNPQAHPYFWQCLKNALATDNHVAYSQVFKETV
Summary of the method: as §1

human TLR9 = biological target: T3, human TLR9 (Homo sapiens, UniProt Q9NR96); assay: TLR9 inhibition reporter assay (HEK-Blue SEAP); conditions: HEK-Blue cells overexpressing human TLR9, stimulated with ODN2006 5 nM, 22 hour incubation
T3 construct: host or cells: HEK-Blue cells
T3 sequence (Q9NR96 26-1032): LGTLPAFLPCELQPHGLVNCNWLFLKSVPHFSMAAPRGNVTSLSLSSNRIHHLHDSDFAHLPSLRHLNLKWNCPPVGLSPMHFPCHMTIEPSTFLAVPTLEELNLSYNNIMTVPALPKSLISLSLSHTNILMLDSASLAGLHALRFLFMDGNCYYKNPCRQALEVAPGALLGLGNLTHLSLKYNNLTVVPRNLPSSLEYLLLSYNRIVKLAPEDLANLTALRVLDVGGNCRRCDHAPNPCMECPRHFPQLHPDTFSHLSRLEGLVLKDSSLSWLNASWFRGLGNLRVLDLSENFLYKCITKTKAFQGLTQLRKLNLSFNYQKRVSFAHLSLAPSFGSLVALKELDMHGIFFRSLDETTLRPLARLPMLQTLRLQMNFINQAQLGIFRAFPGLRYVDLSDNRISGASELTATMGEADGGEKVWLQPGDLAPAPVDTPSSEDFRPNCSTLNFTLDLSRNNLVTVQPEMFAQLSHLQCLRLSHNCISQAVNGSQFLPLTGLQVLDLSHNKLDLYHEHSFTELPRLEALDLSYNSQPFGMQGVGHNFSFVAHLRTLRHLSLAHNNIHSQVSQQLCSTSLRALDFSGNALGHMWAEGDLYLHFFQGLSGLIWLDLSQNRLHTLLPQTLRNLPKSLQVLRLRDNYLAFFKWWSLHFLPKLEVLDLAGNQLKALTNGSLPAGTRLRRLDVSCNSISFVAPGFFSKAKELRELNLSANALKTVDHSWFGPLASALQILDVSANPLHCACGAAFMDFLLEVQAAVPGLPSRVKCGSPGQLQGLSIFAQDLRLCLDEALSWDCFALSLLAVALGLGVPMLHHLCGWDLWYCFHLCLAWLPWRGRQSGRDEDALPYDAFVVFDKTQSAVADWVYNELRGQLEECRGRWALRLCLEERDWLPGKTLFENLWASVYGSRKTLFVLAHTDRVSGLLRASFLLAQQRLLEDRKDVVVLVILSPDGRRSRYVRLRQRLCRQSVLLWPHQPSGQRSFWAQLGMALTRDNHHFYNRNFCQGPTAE
Summary of the method: as §1

Row | Compound | IC50 (human TLR8) [nM] | IC50 (human TLR7) [nM] | IC50 (human TLR9) [nM]
1 | CCc1cc(-c2cc(C)c3ncnn3c2)cc2[nH]nc(OC3CCN(CC(=O)N(C)C)CC3)c12 [Example 196, 2-(4-((4-ethyl-6-(8-methyl-[1,2,4]triazolo[1,5-a]pyridin-6-yl)-1H-indazol-3-yl)oxy)piperidin-1-yl)-N,N-dimethylacetamide] | 1 | 4.9 | 5760
2 | COc1cc(-c2ccc3c(C(=O)NC4CCNCC4)c[nH]c3c2)cn2ncnc12 [Example 197, 6-(8-methoxy-[1,2,4]triazolo[1,5-a]pyridin-6-yl)-N-(piperidin-4-yl)-1H-indole-3-carboxamide] | 2360 | 319 | 28200
3 | Cc1cc(-c2ccc3c(C(=O)NC4CCNCC4)c[nH]c3c2)cn2ncnc12 [Example 198, 6-(8-methyl-[1,2,4]triazolo[1,5-a]pyridin-6-yl)-N-(piperidin-4-yl)-1H-indole-3-carboxamide] | 590 | 493 | 9210
4 | Cc1cc(-c2ccc3c(C(=O)NC4CCNCC4)n[nH]c3c2)cn2ncnc12 [Example 199, 6-(8-methyl-[1,2,4]triazolo[1,5-a]pyridin-6-yl)-N-(piperidin-4-yl)-1H-indazole-3-carboxamide] | 218 | 226 | 4370
5 | Cc1cc(-c2ccc3c(NC4CCNCC4)n[nH]c3c2)cn2ncnc12 [Example 200, 6-(8-methyl-[1,2,4]triazolo[1,5-a]pyridin-6-yl)-N-(piperidin-4-yl)-1H-indazol-3-amine] | 149 | 289 | 1890
6 | Cc1cc2c(N)n[nH]c2cc1-c1cc(C)c2ncnn2c1 [Example 201, 5-methyl-6-(8-methyl-[1,2,4]triazolo[1,5-a]pyridin-6-yl)-1H-indazol-3-amine] | 55.7 | 857 | ≥ 50000
7 | Cc1cc2c(NC(=O)C3CCNCC3)n[nH]c2cc1-c1cc(C)c2ncnn2c1 [Example 202, N-(5-methyl-6-(8-methyl-[1,2,4]triazolo[1,5-a]pyridin-6-yl)-1H-indazol-3-yl)piperidine-4-carboxamide] | 15.3 | 266 | 9920
8 | Cc1cc2c(NCCN3CCCC3)n[nH]c2cc1-c1cc(C)c2ncnn2c1 [Example 204, 5-methyl-6-(8-methyl-[1,2,4]triazolo[1,5-a]pyridin-6-yl)-N-(2-(pyrrolidin-1-yl)ethyl)-1H-indazol-3-amine] | 1.9 | 85.9 | 2530
9 | Cc1cc2c(N3CCNCC3)n[nH]c2cc1-c1cc(C)c2ncnn2c1 [Example 205, 8-methyl-6-(5-methyl-3-(piperazin-1-yl)-1H-indazol-6-yl)-[1,2,4]triazolo[1,5-a]pyridine] | 0.7 | 14.1 | 6100
10 | Cc1cc(-c2cc3[nH]nc(N4CCNCC4)c3cc2C(C)C)cn2ncnc12 [Example 206, 6-(5-isopropyl-3-(piperazin-1-yl)-1H-indazol-6-yl)-8-methyl-[1,2,4]triazolo[1,5-a]pyridine] | 16.4 | 3.2 | 21900
11 | Cc1cc(-c2cc3[nH]nc(N4CCN(C5CCOCC5)CC4)c3cc2C(C)C)cn2ncnc12 [Example 207, 6-(5-isopropyl-3-(4-(tetrahydro-2H-pyran-4-yl)piperazin-1-yl)-1H-indazol-6-yl)-8-methyl-[1,2,4]triazolo[1,5-a]pyridine] | 0.15 | 6.5 | 33300
12 | Cc1cc(-c2cc3[nH]nc(N4CCN(C(C)C)CC4)c3cc2C(C)C)cn2ncnc12 [Example 208, 6-(5-isopropyl-3-(4-isopropylpiperazin-1-yl)-1H-indazol-6-yl)-8-methyl-[1,2,4]triazolo[1,5-a]pyridine] | 0.12 | 5.8 | 11900
